From paper PMC12916490 (Molecular Psychiatry, 2025)
Read-outs that look alike come from different tables or passages of the source.

Experiments:
h5-HT2C = target: T1, h5-HT2C (Homo sapiens, UniProt P28335); assay: cell-based; settings: for Emax: read-out: IP1 formation Emax h5-HT2C (95% CI)
T1 sequence (P28335 33-458): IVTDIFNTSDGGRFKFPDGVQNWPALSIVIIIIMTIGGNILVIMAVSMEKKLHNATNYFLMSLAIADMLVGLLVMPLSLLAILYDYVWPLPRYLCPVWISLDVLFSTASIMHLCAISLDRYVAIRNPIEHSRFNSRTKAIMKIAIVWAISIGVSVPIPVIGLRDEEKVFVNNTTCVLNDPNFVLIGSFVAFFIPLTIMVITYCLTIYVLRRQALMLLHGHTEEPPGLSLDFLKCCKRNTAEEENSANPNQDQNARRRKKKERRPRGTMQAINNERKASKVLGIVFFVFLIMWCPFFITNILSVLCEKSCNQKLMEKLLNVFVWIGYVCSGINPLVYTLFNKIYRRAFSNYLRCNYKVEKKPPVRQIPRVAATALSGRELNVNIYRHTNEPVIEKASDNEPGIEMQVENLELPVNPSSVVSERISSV

mice = system: mice; design: method as in ref 20 (Halberstadt et al. 2020); settings: ref 20 (Halberstadt et al. 2020), cited from earlier work; for HTR in mice ED50 (95% CI): i.p.
[1] = In vivo microdialysis (striatum) with plasma and brain levels after co-administration of DOM and DOAM; design: species or system mouse; settings: 0.5 mg/kg s.c. each; for Dialysate concentration (striatal microdialysis) after co-administration of DOM and DOAM: dialysate collected 30 min post injection, detection limit 0.04 ng/mL; for concentration at 30 min: both sexes, C57BL/6JRj, mouse, subcutaneous, 30 min post injection, mice
Description: Microdialysis experiments were conducted as previously reported with minor modifications; involved procedures were approved by the Cantonal Veterinary Office Basel-Stadt, in accordance with Swiss law. Three male and two female C57BL/6JRj mice (Janvier Labs, France) aged 11–14 weeks were used. During stereotactic surgeries, a guide cannula (CMA7; CMA Microdialysis AB, Sweden) directed to the striatum was implanted at 0.6 AP, 1.8 ML and -1.5 DV from bregma and fixed with dental cement. On the day of microdialysis, a microdialysis probe (CMA7, 3-mm probe length) was inserted into the guide cannula and perfused with artificial cerebrospinal fluid (119 mM NaCl, 11 mM D-glucose, 26.2 mM NaHCO3, 2.5 mM KCl, 1.3 mM MgCl2, 1 mM NaH2PO4, and 2.5 mM CaCl2) at 1 µL/min. The dialysate was collected for 30 min before s.c. injection of a mixture of DOM and DOAM (dissolved in DMSO/Tween80/saline; 1:1:18) yielding a dose of 0.5 mg/kg body weight for each substance. The dialysate post injection was collected for 30 min followed by decapitation under isoflurane anesthesia. Plasma obtained from trunk blood and homogenates of the forebrains (0.5 g brain tissue per 1 mL ice-cold water) were prepared for LC–MS/MS analysis. One hemisphere of the brain from each mouse was fixed in 4% paraformaldehyde, sectioned, and stained with Hoechst dye (2 µg/mL for 30 min) to confirm the placement of the microdialysis probe in the striatum. After running microdialysis in one or two mice, the recoveries of the microdialysis probes were assessed by collecting dialysate for 15 min at 1 µL/min with the probe immersed in a mixture of DOM and DOAM (1 µg/mL each; in artificial cerebrospinal fluid).
Data analysis was performed with Prism software (version 10.1.2, GraphPad Software, Boston, MA, USA). The IC50 values from the radioligand binding assays were determined by nonlinear regression, using three independent concentration-response curves fitted to a one-site model. The Cheng-Prusoff equation was used to calculate Kᵢ values for the competing ligands. EC50 values were determined by applying nonlinear regression to concentration-response curves. Bias factors (β) were calculated based on the relative intrinsic activity approach. More detailed information can be found in the Supplementary information. Mean values for total number of HTR, change in body temperature from pre to post session (Δ°C), and total distance traveled (cm) for each drug dose were compared (p < 0.05) via Welch’s ANOVA with Dunnett’s T3 post test, comparing all doses to respective vehicle controls (0 mg/kg). Welch’s ANOVA with Dunnett’s T3 post test was also used to compare drug concentrations, but the data were compared to DOM in this case. Dose–response relationships for HTR and locomotor activities were plotted using bell-shaped curve fits, while temperature change data were plotted using four-parameter non-linear regression curve fits. The ascending phase of the HTR curve for each drug was used to determine ED50 potency values from four parameter non-linear regression fits. For combined DOM and DOAM administration, the plasma, brain tissue, and brain dialysate drug concentrations were compared using paired t-tests (p < 0.05). Ratios were compared using Holm-Sidak’s post hoc test following a repeated-measures one-way ANOVA (F (1.709, 6.835) = 70.80; p < 0.0001).

[2] = brain (forebrain homogenate), read-out: Brain tissue level after co-administration of DOM and DOAM
[3] = plasma, read-out: Plasma level after co-administration of DOM and DOAM

SMILES	EC50 (h5-HT2C)	Emax (h5-HT2C)	HTR in mice ED50 (95% CI) (mice)	HTR in mice Emax (mice)	Dialysate concentration (striatal microdialysis) after co-administration of DOM and DOAM [1]	concentration at 30 min [1, 2]	concentration at 30 min [1, 3]	Emax (h5-HT2C; normalized to maximal effect of 5-HT)
COc1ccc(OC)c(CC(C)N)c1.Cl (centres unmarked) [2,5-DMA, 2,5-Dimethoxyamphetamine hydrochloride]	124 nM	103%						
CCc1cc(OC)c(CC(C)N)cc1OC (centres unmarked) [DOET, 4-ethyl-2,5-dimethoxyamphetamine]			0.20 (0.11–0.36) mg/kg	122 total HTR count				
CCCCCc1cc(OC)c(CC(C)N)cc1OC (centres unmarked) [DOAM, 4-amyl-2,5-dimethoxyamphetamine]	0.9 nM	94%			< 0.04 ng/mL	276 ng/g	12 ng/mL	
CCCCc1cc(OC)c(CC(C)N)cc1OC (centres unmarked) [DOBU, 4-butyl-2,5-dimethoxyamphetamine]	0.13 nM		1.17 mg/kg					95%
CCCc1cc(OC)c(CC(C)N)cc1OC.Cl (centres unmarked) [DOPR, 4-propyl-2,5-dimethoxyamphetamine hydrochloride]	0.93 nM	99%						
COc1cc(CC(C)N)c(OC)cc1C (centres unmarked) [DOM, 4-methyl-2,5-dimethoxyamphetamine]					0.82 ng/mL	463 ng/g	26 ng/mL	
